Measurements taken from patent US20080226565A1, “Anticariogenic Proteins & Peptides & Saccharides” (priority 2004, published 2008).

Experiment: In-vivo: radiated tooth samples treated with protector, 5 days in the oral cavity, Knoop hardness
Design: species or system human
Conditions: for delta: change of hardness (increase of depth of penetration): radiation + 5 days in oral cavity, 0.1% fluoride or 4% bisphosphonate e-polylysine with CaCl2 and KH2PO4
Description: A device is constructed that can contain up to 6 experimental tooth samples for positioning in the oral cavity. […] The construction of the experimental tooths samples is outlined in chapter C.2.“Results; in-vivo experiments”. In the oral cavity, the tooth samples are positioned in the device in such a way that the enamel surfaces are subjected to physical contact with the tongue and are submerged in saliva. […] In experiments where the device is residing a long time period in the oral cavity (5 days and more), a metal network is positioned just above the surface of the experimental teeth, in order to provide support for the bacteria and stimulate it's growth path. It is also possible to measure the residual protection competence by removing the tooth samples from the oral cavity at the end of the selected residence time and treating them with acid under laboratory conditions.
The device was positioned after the lower jaw in the oral cavity for a period of five days. After removal from the oral cavity, the samples where cleaned and the hardness was measured.
Tooth samples have been cut in horizontal slices (thickness: 0.3 to 1 mm) with a Leitz 1600 tooth cutter with horizontal cutting blade; the slices are cut manually (with a bore) into small tooth samples that contain a small part of the original tooth surface. The tooth sample is positioned in a small plastic tube, that has been cut from a long plastic tube with 6 mm external diameter. The length of the tube is 3 to 6 mm. The inner part of the tube is filled with a polymer that hardens under light (Photoclearfil Bright; Kuraray). The tooth sample is positioned in the soft polymer inside the tube, in such a way that the original tooth surface is just surfacing above the tube. Finally the polymer is hardened with a light source. The tooth surface is polished with Struers silicon carbid paper (800-4000) and the hardness is measured 5 times on each of the samples under the Letiz Wetzlar microscope (weight on needle: 50 p). Tooth samples with a maximum average depth of penetration of 43 μm are retained for use in the oral cavity.
Tooth samples have been subjected to a radiation dose that is equal to the amount that is given to patients with oral cancer (20 Gray) and have been sterilized. […] A drop of the solution was positioned on the tooth surface and allowed to reside for a period of 30 minutes at 37 C.; the procedure was repeated after removal of the drop with pressured air. Finally the drop was removed, the tooth was dried on air and fixed to the device. In total six tooth samples have been fixed to the device and positioned in the oral cavity after the lower jaw. It remained in the oral cavity for a period of 5 days (day and night). After completion of the required residence time, the device was removed from the oral cavity and the experimental teeth where separated from the device and washed. The hardness was measured according to the Knoop method, six times on each of the tooth samples.
B: the stage at which the hardness of the tooth surface has been measured with the Knoop method. (before the treatment; after radiation and before addition of protector formulation to the surface; after addition of protector to the surface of the tooth and after residing five days in the oral cavity).
B: the stage at which the hardness of the tooth surface has been measured with the Knoop method.

bisphosphonylated epsilon-polylysine [bisphosphonylated e-polylysine]
Mean hardness (depth of penetration) (after protector and 5 days oral cavity, 0.1% NaF or 4% bisphosphonate e-polylysine with CaCl2 and KH2PO4): 41.97 μm
Mean hardness (depth of penetration) (after radiation, before addition of protector (baseline of group)): 41.02 μm
delta: change of hardness (after radiation, before addition of the formulation): 0.15 μm
delta: change of hardness (increase of depth of penetration) (listed as bisphosphonate e-polylysine): 1.10 μm
delta: change of hardness (increase of depth of penetration) (listed as bisphosphonylated epsilon-polylysine): 1.1 μm
Mean hardness (depth of penetration) (start, before treatment (baseline of group)): 40.87 μm
